Measured values taken from paper PMC10950897, “VCF1 is a p97/VCP cofactor promoting recognition of ubiquitylated p97-UFD1-NPL4 substrates” (Nature Communications, 2024).

How the values were obtained:
[1] = test system: C1QBP; histone H3 (U2OS/GFP-VCF1 cells); experiment: GFP IP immunoblot for C1QBP and Histone H3; format: binding, human; conditions: U2OS/GFP-VCF1 WT
Method: (§1) Immunoblotting was performed as previously described. Immunoprecipitation (IP) of HA-tagged proteins was performed using Anti-HA Affinity matrix (Roche) under denaturing conditions, unless otherwise stated. GFP-trap and […] Fab-trap agarose (Chromotek) were used according to manufacturer’s instructions. Cell lysis was performed using RIPA buffer (140 mM NaCl; 10 mM Tris-HCl, pH 8.0; 0.1% sodium deoxycholate; 1% Triton X-100; 0.1% SDS; 1 mM EDTA; 0.5 mM EGTA) or EBC buffer (50 mM Tris, pH 7.5; 150 mM NaCl; 1 mM EDTA; 0.5% NP-40, 1 mM DTT). IPs were washed in non-denaturing buffer (50 mM Tris-HCl, pH 7.5; 150 mM NaCl; 0.5 mM EDTA). Cell lysis and IP under partially denaturing conditions were performed using denaturing buffer (20 mM Tris-HCl, pH 7.5; 50 mM NaCl; 0.5% sodium deoxycholate; 0.5% NP-40; 0.5% SDS; 1 mM EDTA). All lysis and wash buffers were supplemented with 1 mM fresh PMSF Protease Inhibitor (Thermo), complete EDTA-free protease inhibitor Cocktail Tablets (Roche), 1.25 mM N-ethylmaleimide (Sigma) and 50 µM PR-619 (Calbiochem).

p97 = experiment: IP of endogenous VCF1 from U2OS cells; format: binding, human
Method: as §1

Ub(G76V)-GFP, U2OS cells = experiment: QIBC of Ub(G76V)-GFP in cells overexpressing FLAG-tagged proteins; format: cell-based, human; conditions: FLAG-tagged plasmids, FLAG-positive cells
Method: U2OS (catalog no. HTB-96) cells were obtained from ATCC. HEK293-EBNA1-6E cells were a kind gift from Yves Durocher (National Research Council Canada, Montreal, Canada). All mammalian cell lines were cultured under standard conditions at 37 °C and 5% CO2 in DMEM (Thermo) supplemented with 10% FBS (v/v) and penicillin-streptomycin (Thermo). Recombination cloning-compatible U2OS cells were generated using the Flp-In T-Rex Core Kit (Thermo) according to the manufacturer’s instructions and maintained under selection using Blasticidin (Invivogen) and Zeocin (Thermo). To generate cell lines stably expressing GFP-VCF1, U2OS Flp-In T-Rex cells (Thermo) were co-transfected with GFP-VCF1 constructs and pOG44 (Thermo) plasmids, followed by selection with Hygromycin (Invitrogen). Single clones were carefully screened for uniform expression of ectopic GFP-VCF1 at low levels and maintained under selection with Blasticidin and Hygromycin. To induce GFP-VCF1 expression, cells were treated with Doxycycline (DOX) (0.5 µg/ml) for 16 h. U2OS cell lines stably expressing Ub(G76V)-GFP or Ub(G76V)-GFP-20AA were described previously. A U2OS cell line stably expressing Ub(G76V)-GFP-NES was generated under G418 (Invivogen) selection. […]
Mammalian cells grown on coverslips were fixed in formalin buffer (VWR) for 15 min at room temperature (RT). […] Quantitative image-based cytometry (QIBC) was performed as described. […]

Substance: VCF1: human FAM104A isoform 1, 186 amino acids (UniProt Q969W3); recombinant Strep-HA-tagged
- C1QBP in VCF1 IP [1]: unable to detect C1QBP in VCF1 IPs
- interaction with histone H3 [1]: weak interaction between VCF1 and histone H3
- interaction of endogenous VCF1 with p97 (p97; U2OS whole cell lysates): validate an interaction between endogenous VCF1 and p97
- endogenous NPL4 in endogenous VCF1 IP (p97; U2OS, along with p97): NPL4 could be detected in endogenous VCF1 IPs along with p97
- effect of overexpression on Ub(G76V)-GFP (Ub(G76V)-GFP, U2OS cells): stabilized Ub(G76V)-GFP similar to the effect of elevating NPL4 or p47 expression levels
